Among the test systems are ACHN; HL-60; HOP-62; HOP-92; OVCAR-4; OVCAR-8; RXF 393; SF-268; SF-539; SK-MEL-2; SR; TK-10; HCC 2998; NCI-H226; DU-145; MCF7; MDA-MB-435; T47D.
Common to all, as to experiment: NCI-60 cell line screen, 48 h

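96-well plates; 48 h exposure; 5 concentrations. Endpoints by linear interpolation between flanking doses. Not reached: highest tested concentration assigned. Abbreviation: GI50, concentration required for 50% inhibition of growth.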 The source made the active and inactive calls. Cut-off read from the data, not from the text of the source: active = GI50 up to about 1.1 µM and inactive = higher.

In the case of `C/C=C/C=C/[C@H]1Cc2cc(O)cc(O)c2O1`, the GI50 was 52.5 µM (inactive) in the test with ACHN; 26.1 µM (inactive) with HL-60; > 100 µM (inactive) with HOP-62; > 100 µM (inactive) in the test with HOP-92; 35 µM (inactive) with OVCAR-4; 60.4 µM (inactive) in the test on OVCAR-8. In addition, the GI50 in the test with RXF 393 was > 100 µM (inactive); in the test with SF-268, > 100 µM (inactive); in the test with SF-539, > 100 µM (inactive); with SK-MEL-2 it was > 100 µM (inactive); in the test on SR it was 78.5 µM (inactive); with TK-10, > 100 µM (inactive).
Take `O=C1N=C(Nc2ccccc2Cl)SC1C(=O)Nc1ccc([N+](=O)[O-])cc1[N+](=O)[O-]` (configuration not stated): the GI50 with ACHN is > 100 µM (inactive); in the test on HCC 2998, > 100 µM (inactive); in the test with HL-60, > 100 µM (inactive); with HOP-62, > 100 µM (inactive); with HOP-92, 32.5 µM (inactive); in the test on NCI-H226 it was 82.8 µM (inactive). For the same compound, the GI50 in the test with OVCAR-4, in the test on OVCAR-8, with RXF 393, in the test on SF-268, in the test on SF-539 and with SK-MEL-2 was > 100 µM (inactive) throughout. For the same compound, the GI50 in the test with SR is > 100 µM (inactive); with TK-10 it was 51.6 µM (inactive).
For the compound `O=C(/C=C/c1ccccc1)c1ccc(NCc2nc3ccccc3[nH]2)cc1`, the GI50 in the test on ACHN was 7.66 µM (inactive); in the test on HCC 2998, 2.12 µM (inactive); in the test on HL-60 it was 2.33 µM (inactive); with HOP-62, 11.2 µM (inactive); in the test on HOP-92, 6.18 µM (inactive); in the test with NCI-H226, 4.19 µM (inactive). Besides, the GI50 with OVCAR-4 was 9.23 µM (inactive); with OVCAR-8, 3.49 µM (inactive); with RXF 393, 5.22 µM (inactive); in the test with SF-268, 6.44 µM (inactive); in the test with SF-539, 2.17 µM (inactive); in the test on SK-MEL-2, 12.7 µM (inactive). In addition, the GI50 in the test on SR was 16.1 µM (inactive); in the test with TK-10, 11.7 µM (inactive).
On to `COc1cc(/C=C(\NC(=O)c2ccccc2)c2nc3c(O)nc(S)nc3[nH]2)cc(OC)c1OC`, for which the GI50 in the test on ACHN is > 100 µM (inactive); in the test with HCC 2998, > 100 µM (inactive); in the test on HL-60 it was > 100 µM (inactive); in the test with HOP-92, 59.3 µM (inactive); with OVCAR-4, > 100 µM (inactive); with OVCAR-8 it was > 100 µM (inactive). Moreover, the GI50 in the test on RXF 393, with SF-268, in the test on SF-539, in the test on SK-MEL-2, in the test with SR and in the test on TK-10 was > 100 µM (inactive) throughout.
On to `CCOC(=O)C(NC(=O)CC(C)C)(Nc1ccc(C(F)(F)F)cc1)C(F)(F)F` (configuration not stated), for which the GI50 in the test with ACHN was 14.5 µM (inactive); in the test on DU-145, 89.9 µM (inactive); in the test with HCC 2998, 32.8 µM (inactive); in the test with HL-60, 21 µM (inactive); with HOP-62, 36.1 µM (inactive); in the test with HOP-92, 30.3 µM (inactive). For the same compound, the GI50 is > 100 µM (inactive) with MCF7; > 100 µM (inactive) in the test with MDA-MB-435; > 100 µM (inactive) in the test with NCI-H226; 35.4 µM (inactive) in the test with OVCAR-4; 27.1 µM (inactive) with OVCAR-8; 35.4 µM (inactive) with RXF 393. The GI50 with SF-268 is > 100 µM (inactive); in the test on SF-539, > 100 µM (inactive); in the test on SK-MEL-2, 15.7 µM (inactive); with SR, 23.4 µM (inactive); with T47D, 18.4 µM (inactive); in the test with TK-10, 40.5 µM (inactive).
As for `CCCC(Sc1ccccc1)P(=O)(c1ccccc1)c1ccccc1` (configuration not stated), the GI50 in the test with ACHN was 19.8 µM (inactive); in the test on HL-60, 22.3 µM (inactive); with HOP-62 it was 46.6 µM (inactive); with HOP-92 it was 21.8 µM (inactive); in the test with OVCAR-4, 37.8 µM (inactive); with OVCAR-8, 36.2 µM (inactive). Moreover, the GI50 is 41.8 µM (inactive) with RXF 393; 32.5 µM (inactive) with SF-268; 35.1 µM (inactive) with SF-539; 20.6 µM (inactive) with SR; 40 µM (inactive) with TK-10.
For the compound `Brc1ccc(C2SCc3nc4ccccc4n32)cc1` (configuration not stated), the GI50 in the test on ACHN was 8.2 µM (inactive); in the test on HL-60, 3.19 µM (inactive); in the test on HOP-62, 7.57 µM (inactive); in the test with HOP-92 it was 1.06 µM (active); with NCI-H226, 17.4 µM (inactive); in the test on OVCAR-4, 7.53 µM (inactive). Further, the GI50 in the test with OVCAR-8 is 12.8 µM (inactive); in the test with RXF 393 it was 7.45 µM (inactive); with SF-268 it was 13.6 µM (inactive); in the test on SF-539, 18.5 µM (inactive); in the test with SK-MEL-2 it was 14.1 µM (inactive); in the test on SR, 7.6 µM (inactive). In the test on TK-10, the GI50 is 13.8 µM (inactive).
In the case of `COC(=O)c1nc(C(=O)OC)c2c([nH]c3ccccc32)c1C(=O)OC`, the GI50 in the test on HCC 2998 was > 100 µM (inactive); with HOP-62 it was > 100 µM (inactive); in the test with HOP-92 it was > 100 µM (inactive); in the test on NCI-H226 it was 37.7 µM (inactive); in the test with OVCAR-4, > 10 µM (inactive); in the test on OVCAR-8 it was > 100 µM (inactive). Moreover, the GI50 with RXF 393 was 31.8 µM (inactive); in the test on SF-539 it was > 100 µM (inactive); in the test on SK-MEL-2, > 100 µM (inactive); in the test with SR it was 70.3 µM (inactive); in the test with TK-10, > 100 µM (inactive).
As for `Cn1c2cc(O)cc(O)c2c(=O)c2c([N+](=O)[O-])cccc21`, the GI50 with ACHN, in the test on HCC 2998, in the test with HL-60, in the test on HOP-62, with HOP-92 and in the test with NCI-H226 was > 100 µM (inactive) throughout. The GI50 with OVCAR-4, with OVCAR-8, in the test with RXF 393, with SF-268, with SF-539 and with SK-MEL-2 was > 100 µM (inactive) in each case. Besides, the GI50 in the test on SR and with TK-10 was > 100 µM (inactive) in each case.
Consider `[O-][S+]1Cc2ccccc2CS1` (configuration not stated), for which the GI50 in the test with ACHN is 18.8 µM (inactive); in the test on HCC 2998, 29.7 µM (inactive); in the test on HL-60, 15.1 µM (inactive); with HOP-92 it was 14 µM (inactive); in the test on NCI-H226 it was 87.1 µM (inactive); in the test with OVCAR-4, 16 µM (inactive). In addition, the GI50 with OVCAR-8 is 15 µM (inactive); in the test on RXF 393, 15.9 µM (inactive); in the test with SF-268, 22.9 µM (inactive); with SF-539 it was 11.4 µM (inactive); in the test on SR, 20 µM (inactive); in the test on TK-10, 21.8 µM (inactive).
Turning to `COc1ccc2[nH]c3c(c2c1)[C@H](C)C[C@@H]1C(=O)N(c2ccccc2)C(=O)[C@H]31`, the GI50 in the test with ACHN was 37.8 µM (inactive); in the test on HCC 2998, 39.4 µM (inactive); in the test on HL-60, > 100 µM (inactive); in the test on HOP-62 it was 24 µM (inactive); in the test with HOP-92, 14.9 µM (inactive); in the test on OVCAR-4 it was 20.7 µM (inactive). Further, the GI50 with OVCAR-8 was 17.8 µM (inactive); in the test on RXF 393, 29.6 µM (inactive); with SF-268, 26.6 µM (inactive); in the test with SF-539, 21.2 µM (inactive); with SK-MEL-2 it was 42.7 µM (inactive); with SR, 26.2 µM (inactive). For the same compound, the GI50 in the test with TK-10 is 31.3 µM (inactive).
In the case of `CC(C)CS(=O)(=O)/C(=C(\c1ccc(Br)cc1)S(=O)(=O)CC(C)C)c1ccc(Br)cc1`, the GI50 in the test with ACHN, with HCC 2998, in the test with HOP-62, in the test with HOP-92, in the test with NCI-H226 and in the test on OVCAR-4 was > 100 µM (inactive) in each case. The GI50 is > 100 µM (inactive) with OVCAR-8; 90.2 µM (inactive) in the test with RXF 393; > 100 µM (inactive) with SF-268; > 100 µM (inactive) in the test with SF-539; > 100 µM (inactive) in the test on SK-MEL-2; > 100 µM (inactive) in the test on SR. In addition, in the test with TK-10, the GI50 is > 100 µM (inactive).
For `CCOC(=O)NC(=O)c1cn(CCCOC(=O)CCCCCCCCCCC(=O)OCCCn2cc(C(=O)NC(=O)OCC)c(=O)n(C)c2=O)c(=O)n(C)c1=O`, the GI50 with ACHN is > 100 µM (inactive); in the test on HCC 2998, > 100 µM (inactive); in the test with HL-60, > 100 µM (inactive); in the test on HOP-62 it was > 100 µM (inactive); with HOP-92 it was 67.8 µM (inactive); with NCI-H226, > 100 µM (inactive). Also, the GI50 in the test with OVCAR-4, with OVCAR-8, with RXF 393, in the test on SF-268, in the test on SF-539 and in the test with SK-MEL-2 was > 100 µM (inactive) in each case. The GI50 with SR and in the test on TK-10 was > 100 µM (inactive) each time.
Take `Cc1ccc(C)c(NC(=O)CC/C(=N\NC(=O)C(=O)NN)C(C)C(=O)c2ccc(O)cc2)c1` (configuration not stated): the GI50 in the test with ACHN, with HCC 2998, in the test on HOP-62, in the test with HOP-92, in the test on NCI-H226 and in the test with OVCAR-4 was > 100 µM (inactive) each time. Moreover, the GI50 in the test on RXF 393, in the test on SF-268, with SF-539, with SK-MEL-2, in the test with SR and in the test with TK-10 was > 100 µM (inactive) throughout.
In the case of `COc1ccc(/C=C2\CCC(CCN(C)C)(C3=CCCC3)C2=O)cc1Br` (configuration not stated), the GI50 with ACHN was 9.29 µM (inactive); in the test with HCC 2998, 2.33 µM (inactive); in the test on HL-60, 2.52 µM (inactive); in the test on HOP-62 it was 14.5 µM (inactive); with HOP-92 it was 2.97 µM (inactive); in the test with NCI-H226, 16.9 µM (inactive). Moreover, the GI50 with OVCAR-4 was 3.68 µM (inactive); in the test with OVCAR-8, 9.08 µM (inactive); in the test with RXF 393 it was 2.22 µM (inactive); in the test on SF-268, 7.03 µM (inactive); in the test on SF-539, 12.1 µM (inactive); in the test on SK-MEL-2, 10 µM (inactive). Further, the GI50 with SR was 1.51 µM (inactive); with TK-10, 6.93 µM (inactive).

For the origin of these results see ChEMBL document CHEMBL1201862, “PubChem BioAssay data set” (2004).
